“And” between values parts separate entries of the source, which are not always exact repeats. Equal values may be shown once. Where a name gives a salt, the structure may show the parent alone. Read-outs that look alike come from different tables or passages of the source.
How the values were obtained:
[1] = test system: SUDHL10; test: Induction of cytotoxicity (CellTiter-Glo, 5 h), SUDHL10
[2] = biological target: MCL-1 (Homo sapiens, UniProt Q07820); test: Protein-protein interaction assay MCL-1/Noxa BH3 peptide (MCL-1 assay), TR-FRET; type: binding; conditions: MBP-MCL-1 / Noxa BH3-derived peptide, median
Sequence of MCL-1 (Q07820 whole entry): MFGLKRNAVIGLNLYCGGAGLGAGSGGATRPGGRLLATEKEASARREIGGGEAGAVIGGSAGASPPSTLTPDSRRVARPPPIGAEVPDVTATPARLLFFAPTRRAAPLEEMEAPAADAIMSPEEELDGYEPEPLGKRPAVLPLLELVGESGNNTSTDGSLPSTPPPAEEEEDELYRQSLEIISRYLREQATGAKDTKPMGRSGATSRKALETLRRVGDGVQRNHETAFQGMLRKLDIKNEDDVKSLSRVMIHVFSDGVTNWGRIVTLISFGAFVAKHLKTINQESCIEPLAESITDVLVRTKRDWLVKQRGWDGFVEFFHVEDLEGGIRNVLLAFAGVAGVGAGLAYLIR
Method in brief: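 IC50 came from a 4-parameter fit of the normalized 665/620 nm TR-FRET ratio (anti-MBP Eu-cryptate/streptavidin-XL665). Compounds (0.1 nM–20 μM, duplicates) were preincubated 10 min at 22 °C with 1 nM MBP-MCL-1 in pH 7 Tris/NaCl/KF buffer, then read after 1 h at 22 °C plus overnight at 4 °C.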

[3] = test system: SUDHL5; test: Induction of cytotoxicity (CellTiter-Glo, 5 h), SUDHL5
[4] = test system: SUDHL5; test: Induction of caspase-3/7 activity (Caspase-Glo 3/7), SUDHL5; type: cell-based; conditions: caspase-3/7 induction, SUDHL5 cells, 3 h treatment, median
Method in brief: (§1)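 DLBCL lines SUDHL5 and SUDHL10 treated with compounds for 3 h at 37 °C; caspase-3/7 activity read by Caspase-Glo 3/7 luminescence. Medium-only background subtracted; EC50 fitted with bottom fixed at 1 and top fixed at the reference compound's maximal induction.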

[5] = test system: MV-4-11; test: Anti-proliferative effect (CellTiter-Glo, 72 h), MV-4-11; type: cell-based; conditions: MV-4-11 cells, median, read-out: IC50 antiproliferation assay MV-4-11 [M] (median)
Method in brief: (§2)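 72 h compound treatment, 37 °C humidified; CellTiter-Glo added, 10 min incubation, luminescence read; day 0 plate read in parallel for baseline.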

[6] = test system: SUDHL10; test: Induction of caspase-3/7 activity (Caspase-Glo 3/7), SUDHL10; type: cell-based; conditions: caspase-3/7 induction, SUDHL10 cells, 3 h treatment, median
Method in brief: as §1

[7] = test system: SUDHL5; test: Anti-proliferative effect (CellTiter-Glo, 72 h), SUDHL5; type: cell-based; conditions: SUDHL5 cells, antiproliferation, median, read-out: Antiproli SUDHL5 [M] (median)
Method in brief: as §2

[8] = test system: A2780; test: Anti-proliferative effect (CellTiter-Glo, 72 h), A2780; type: cell-based; conditions: A2780 cells, median, read-out: IC50 antiproliferation assay A2780 [M] (median)
Method in brief: as §2

[9] = Homo sapiens, SU-DHL10, 5 h, read-out: Cytotox SUDHL10 [M] (median), SUDHL10 cells, cytotoxicity induction, CellTiter-Glo, 5 h incubation, median
[10] = read-out: Cytotox SUDHL5 [M] (median), SUDHL5 cells, cytotoxicity induction, CellTiter-Glo, 5 h incubation, median
[11] = Homo sapiens, SU-DHL-5, 72 h, 72 h incubation
[12] = Homo sapiens, SU-DHL10, 5 h, read-out: Cytotox SUDHL10 [M] (median), SUDHL10 cells, cytotoxicity induction, CellTiter-Glo, 5 h, median
[13] = Homo sapiens, SU-DHL-5, 5 h, read-out: Cytotox SUDHL5 [M] (median), SUDHL5 cells, cytotoxicity induction, CellTiter-Glo, 5 h, median
[14] = Homo sapiens, SU-DHL-5, 72 h, 72 h
[15] = read-out: Cytotox SUDHL10 [M] (median), SUDHL10 cells, cytotoxicity induction, CellTiter-Glo, 5 h, median
[16] = read-out: Cytotox SUDHL5 [M] (median), SUDHL5 cells, cytotoxicity induction, CellTiter-Glo, 5 h, median
[17] = read-out: Cytotox SUDHL10 [M] (median), SUDHL10 cells, cytotoxicity induction, CellTiter-Glo, 5 h incubation, median

IC50 [2]	EC50 [4]	IC50 ([5]; Homo sapiens, MV4-11, 72 h)	EC50 ([6]; Homo sapiens, SU-DHL10, 3 h)	IC50 [7, 11]	IC50 ([8]; Homo sapiens, A2780, 72 h)	EC50 ([4]; Homo sapiens, SU-DHL-5, 3 h)	IC50 [7, 14]	IC50 [5]	EC50 [6]	IC50 ([7]; 72 h)	IC50 [8]	IC50 ([7]; 72 h incubation)	SMILES	IC50 [1, 9]	IC50 [3, 10]	IC50 [1, 12]	IC50 [3, 13]	IC50 [1, 15]	IC50 [3, 16]	IC50 [1, 17]
1.51 µM	–	> 3.3e-05 M	> 33 µM	–	> 3.3e-05 M	> 33 µM	3.2e-05 M	–	–	–	–	–	Cc1c2c(nn1C)COCCCCn1c(C(=O)O)c(CCc3ccc(C(F)(F)F)cc3)c3cccc-2c31 (racemic) [Example 355, (rac)-2,3-dimethyl-7-{2-[4-(trifluoromethyl)phenyl]ethyl}-2,10,11,12,13,15-hexahydropyrazolo[4′,3′:9,10][1,6]oxazacycloundecino[8,7,6-hi]indole-8-carboxylic Acid]	–	–	> 3.3e-05 M	> 3.3e-05 M	–	–	–
2.03 µM	> 33 µM	–	–	–	–	–	–	> 3.3e-05 M	> 33 µM	2.07e-05 M	> 3.3e-05 M	–	COc1ccc2c(CCCOc3cccc4ccccc34)c(C(=O)O)n3c2c1-c1c(nn(C)c1C)COCCCC3 (single isomer, unassigned; enantiomer 2) [Example 351, 4-methoxy-2,3-dimethyl-7-[3-(naphthalen-1-yloxy)propyl]-2,10,11,12,13,15-hexahydropyrazolo[4′,3′:9,10][1,6]oxazacycloundecino[8,7,6-hi]indole-8-carboxylic acid-N-ethylethanamine Salt (Enantiomer 2)]	–	–	–	–	> 3.3e-05 M	> 3.3e-05 M	–
0.0129 µM	–	1.84e-05 M	> 33 µM	–	1.76e-05 M	> 33 µM	1.19e-05 M	–	–	–	–	–	Cc1ccc2c(OCCCc3c(C(=O)O)n4c5c(cccc35)-c3c(nn(C)c3C)COCCCC4)cccc2c1 (racemic) [Example 307, (rac)-11,12-dimethyl-1-(3-((6-methylnaphthalen-1-yl)oxy)propyl)-4,5,6,7,9,11-hexahydropyrazolo[4′,3′:9,10][1,6]oxaazacycloundecino[8,7,6-hi]indole-2-carboxylic Acid]	–	–	> 3.3e-05 M	> 3.3e-05 M	–	–	–
0.0633 µM	–	2.42e-05 M	> 33 µM	–	1.69e-05 M	24.2 µM	9.54e-06 M	–	–	–	–	–	Cc1nn(C)c2c1-c1cccc3c(CCCOc4cccc5cc(C(F)(F)F)ccc45)c(C(=O)O)n(c13)CCCCOC2 [Example 364, (rac)-10,12-dimethyl-1-(3-((6-(trifluoromethyl)naphthalen-1-yl)oxy)propyl) -4,5,67,9,10-hexahydropyrazolo[4′,3′:9,10][1,6]oxaazacycloundecino[8,7,6-hi]indole-2-carboxylic Acid]	–	–	> 3.3e-05 M	1.92e-05 M	2.04e-05 M	–	–
0.0444 µM	30.7 µM and > 33 µM	–	–	–	–	–	–	1.46e-05 M	> 33 µM	–	1.5e-05 M	8.33e-06 M	CCc1c2c(nn1C)COCCCCn1c(C(=O)O)c(CCCOc3cccc4cc(F)ccc34)c3cccc-2c31 (single isomer, unassigned) [Example 283]	–	2.17e-05 M	–	–	–	–	3.05e-05 M
0.106 µM	> 33 µM	–	–	–	–	–	–	1.89e-05 M	> 33 µM	1.05e-05 M	2.23e-05 M	–	CCc1nn(C)c2c1-c1cccc3c(CCCOc4cccc5cc(F)ccc45)c(C(=O)O)n(c13)CCCCOC2 (single isomer, unassigned) [Example 289, (−)-3-ethyl-7-{3-[(6-fluoronaphthalen-1-yl)oxy]propyl}-1-methyl-1,10,11,12,13,15-hexahydropyrazolo[4′,3′:9,10][1,6]oxazacycloundecino[8,7,6-hi]indole-8-carboxylic Acid]	–	–	–	–	> 3.3e-05 M	2.9e-05 M and > 3.3e-05 M	–
0.0028 µM	–	9.57e-06 M	13.6 µM	–	> 3.3e-05 M	3.38 µM	5.06e-06 M	–	–	–	2.62e-05 M	–	CCc1c2c(nn1C)COCCCCn1c(C(=O)O)c(CCCOc3cccc4c3CCCC4)c3cccc-2c31 (racemic) [Example 290, (rac)-12-ethyl-11-methyl-1-(3-((5,6,7,8-tetrahydronaphthalen-1-yl)oxy)propyl)-4,5,6,7,9,11-hexahydropyrazolo[4′,3′:9,10][1]oxa[6]azacycloundecino[8,7,6-hi]indole-2-carboxylic Acid]	–	–	1.19e-05 M	3.61e-06 M	–	–	–

Continued, compound first:

SMILES	IC50 [2]	EC50 [4]	IC50 ([5]; Homo sapiens, MV4-11, 72 h)	EC50 ([6]; Homo sapiens, SU-DHL10, 3 h)	IC50 [7, 11]	IC50 ([8]; Homo sapiens, A2780, 72 h)	EC50 ([4]; Homo sapiens, SU-DHL-5, 3 h)	IC50 [7, 14]	IC50 [5]	EC50 [6]	IC50 ([7]; 72 h)	IC50 [8]	IC50 ([7]; 72 h incubation)	IC50 [1, 9]	IC50 [3, 10]	IC50 [1, 12]	IC50 [3, 13]	IC50 [1, 15]	IC50 [3, 16]	IC50 [1, 17]
Cn1nc2c(c1OC(F)F)-c1cccc3c(CCCOc4cccc5ccccc45)c(C(=O)O)n(c13)CCCCOC2 (single isomer, unassigned) [Example 235, (−)-3-(difluoromethoxy)-2-methyl-7-[3-(naphthalen-1-yloxy)propyl]-2,10,11,12,13,15-hexahydropyrazolo[4′,3′:9,10][1,6]oxazacycloundecino[8,7,6-hi]indole-8-carboxylic Acid]	0.0779 µM	> 33 µM	2.07e-05 M	> 33 µM	1.22e-05 M	1.8e-05 M	–	–	–	–	–	–	–	> 3.3e-05 M	> 3.3e-05 M	–	–	–	–	–
CN1CCCCn2c(C(=O)O)c(CCCOc3cccc4ccccc34)c3cccc(c32)-c2c(CC(F)(F)F)nn(C)c2C1 (single isomer, unassigned) [Example 224, 1,14-dimethyl-7-[3-(naphthalen-1-yloxy)propyl]-3-(2,2,2-trifluoroethyl)-10,11,12,13,14,15-hexahydro-1H-pyrazolo[3′,4′:8,9][1,6]diazacycloundecino[10,11,1-hi]indole-8-carboxylic Acid]	0.395 µM	> 33 µM	–	–	–	–	–	–	1.22e-05 M	> 33 µM	–	1.45e-05 M	6.03e-06 M	–	> 3.3e-05 M	–	–	–	–	3.2e-05 M
CN1CCCCn2c(C(=O)O)c(CCCOc3cccc4ccccc34)c3cccc(c32)-c2c(/C=C/F)nn(C)c2C1 (single isomer, unassigned) [Example 227, 3-[(E)-2-fluoroethenyl]-1,14-dimethyl-7-[3-(naphthalen-1-yloxy)propyl]-10,11,12,13,14,15-hexahydro-1H-pyrazolo[3′,4′:8,9][1,6]diazacycloundecino[10,11,1-hi]indole-8-carboxylic Acid]	0.0909 µM	> 33 µM	–	–	–	–	–	–	1.66e-05 M	> 33 µM	–	1.65e-05 M	8.96e-06 M	–	> 3.3e-05 M	–	–	–	–	> 3.3e-05 M
CCc1nn(C)c2c1-c1c(C)ccc3c(C(C)CCOc4cccc5ccccc45)c(C(=O)O)n(c13)CCCCOC2 (single isomer, unassigned) [Example 272, 3-ethyl-1,4-dimethyl-7-[4-(naphthalen-1-yloxy)butan-2-yl]-1,10,11,12,13,15-hexahydropyrazolo[4′,3′:9,10][1,6]oxazacycloundecino[8,7,6-hi]indole-8-carboxylic Acid]	0.983 µM	> 33 µM	4.89e-06 M	23.8 µM	2.76e-06 M	–	–	–	–	–	–	7.15e-06 M	–	–	> 3.3e-05 M	–	–	–	–	2.5e-05 M
CN1CCCCn2c(C(=O)O)c(CCCOc3cccc4ccccc34)c3cccc(c32)-c2c(/C=C/F)nn(C)c2C1 (single isomer, unassigned) [Example 226, 3-[(E)-2-fluoroethenyl]-1,14-dimethyl-7-[3-(naphthalen-1-yloxy)propyl]-10,11,12,13,14,15-hexahydro-1H-pyrazolo[3′,4′:8,9][1,6]diazacycloundecino[10,11,1-hi]indole-8-carboxylic Acid]	0.00302 µM	3.15 µM	2.09e-05 M	–	–	> 3.3e-05 M	–	–	–	14.2 µM	–	–	3.15e-06 M	3.04e-05 M	3.41e-06 M	–	–	–	–	–
